Measured values from article PMC11676834, “Composition of Triterpene Glycosides of the Far Eastern Sea Cucumber Cucumaria conicospermium Levin et Stepanov; Structure Elucidation of Five Minor Conicospermiumosides A3-1, A3-2, A3-3, A7-1, and A7-2; Cytotoxicity of the Glycosides Against Human Breast Cancer Cell Lines; Structure–Activity …” (Marine Drugs, 2024).
Read-outs that look alike come from different tables or passages of the source.

Legend:
MDA-MB-231 cells [1] = assay: cells; type: cell-based, human
Description: (§1) Human erythrocytes were purchased from the Station of Blood Transfusion, Vladivostok. Human mammary epithelial cell line MCF-10A CRL-10317, human breast cancer cell lines T-47D HTB-133, MCF-7 HTB-22, and MDA-MB-231 CRM-HTB-26 were received from ATCC (Manassas, VA, USA). Culturing conditions: medium of RPMI-1640 with 1% penicillin/streptomycin (Biolot, St. Petersburg, Russia) and 10% fetal bovine serum (FBS) (Biolot, St. Petersburg, Russia) for the T-47D cell line; Minimum Essential Medium (MEM) with 1% penicillin/streptomycin sulfate (Biolot, St. Petersburg, Russia) and FBS (Biolot, St. Petersburg, Russia) to a final concentration of 10% for MCF-7 and MDA-MB-231 cells; DMEM/F12 medium with 10% FBS, 20 ng/mL EGF, […] hydrocortisone, 100 ng/mL cholera toxin, 10 μg/mL insulin, and 1% penicillin/streptomycin (BioinnLabs, Rostov-on-Don, Russia) for MCF-10A cell line.
(§2) The concentrations of tested glycosides were 0.1–50 µM; positive controls were cisplatin and okhotoside A1-1 (7). […] Then, the solutions of tested compounds with medium were replaced by 100 µL of fresh medium, and 10 µL of 3-(4,5-dimethylthiazol-2-yl)-2,5-diphenyltetrazolium bromide (MTT) (PanReac, AppliChem, Darmstadt, Germany) stock solution (5 mg/mL) was added to each well and incubated for 4 h, followed by the addition of 100 µL of SDS-HCl solution (1 g SDS/10 mL d-H2O/17 µL 6 N HCl) and further incubated for 18 h. Multiskan FC microplate photometer (Thermo Fisher Scientific, Waltham, MA, USA) was used to measure the absorbance of the converted dye formazan at 570 nm. The concentration caused the 50% cell metabolic activity inhibition (IC50) expresses the cytotoxic activity of each glycoside. The experiments were conducted in triplicate, p ≤ 0.05.

human erythrocytes [2] = assay: Hemolytic activity; type: cell-based; details: 1 h at 37 °C
Method: Human blood (B(III) Rh+) was used to obtain erythrocytes by centrifuging 450× g three times for 5 min with phosphate-buffered saline (PBS) (pH 7.4) at 4 °C on centrifuge LABOFUGE 400R (Heraeus, Hanau, Germany). Ice-cold PBS (pH 7.4) was used for resuspension of erythrocytes residue to a final optical density of 1.5 at 700 nm, which was kept on ice. Then, 10 µL of tested compound solution or control (okhotoside A1-1 (7)) were added to 90 µL of erythrocyte suspension in V-bottom 96-well plates and exposed for 1 h at 37 °C. Next, centrifugation at 900× g for 10 min on a laboratory centrifuge LMC-3000 (Biosan, Riga, Latvia), led to separation of layers, and 80 µL of supernatant was carefully decanted and transferred into new flat-plate for each. The values of erythrocyte lysis were measured on microplate photometer Multiskan FC (Thermo Fisher Scientific, Waltham, MA, USA) at λ = 570 nm as hemoglobin concentration in supernatant. The effective dose, causing lysis of 50% erythrocytes (ED50), was calculated with SigmaPlot 14.0 software. All the experiments were carried out in triple repetitions, p ≤ 0.05.

MCF-10A cells [3] = assay: Colony formation (clonogenic) assay, MCF-10A; type: cell-based, human
Method: The influence of glycosides on colony formation by MCF-10A or MDA-MB-231 cells was tested by the clonogenic assay. Cell density: 0.3 × 10^2/mL for MDA-MB-231 and for MCF-10A cells per well; incubation conditions: 10–12 days, 37 °C, atmosphere with 5% CO2; obtained: visible to eye colonies (at least 50 cells per colony); fixation with methanol (25 min); staining with 0.5% solution of crystal violet (25 min); washing and air-drying of plates. The counting of grown colonies was carried out using a BIO-PRINT-Cx4 Edge-Fixed Pad-Container (Vilber, Collégien, France) using Bio-Vision Software user and service manual-v18.01 (Vilber, Collégien, France). The results are presented as colony inhibition in comparison with the control.

MDA-MB-231 cells [4] = assay: Wound scratch migration assay; type: cell-based, human; details: 5 μM, 24 h
Method: Attached to special migration plate plastic bottom MDA-MB-231 cells were separated by a silicone insert (Culture-insert 2 Well 24, ibiTreat). After removing an insert, the gap between the cells was 500 ± 50 μm. Cell debris and floating cells were deleted, and the fresh culture medium was added. Then, cells were treated with various concentrations of glycosides or culture medium only (vehicle control) and left for 24 hrs. Cell migration into the wound area was observed under a fluorescence microscope (MIB-2-FL, LOMO, Russia) with objective 10× magnification.

in vitro = type: cell-based, human; details: human
Description: as §1, §2

MCF-7 cells = assay: cells; type: cell-based, human; details: MTT, 24 h, read-out: Cytotoxicity, IC50, MCF-7
Description: as §1
(§3) The concentrations of tested glycosides were 0.1–50 µM; positive controls were cisplatin and okhotoside A1-1 (7). Methodology: to each well of 96-well plates, the cell suspension (180 µL) with solution (20 µL) of tested glycoside in a certain concentration was placed (MCF-10A, MCF-7, T-47D, and MDA-MB-231—7 × 10^3 cells per well) and incubated in the atmosphere with 5% CO2 at 37 °C for 24 h. Then, the solutions of tested compounds with medium were replaced by 100 µL of fresh medium, and 10 µL of 3-(4,5-dimethylthiazol-2-yl)-2,5-diphenyltetrazolium bromide (MTT) (PanReac, AppliChem, Darmstadt, Germany) stock solution (5 mg/mL) was added to each well and incubated for 4 h, followed by the addition of 100 µL of SDS-HCl solution (1 g SDS/10 mL d-H2O/17 µL 6 N HCl) and further incubated for 18 h. Multiskan FC microplate photometer (Thermo Fisher Scientific, Waltham, MA, USA) was used to measure the absorbance of the converted dye formazan at 570 nm. The concentration caused the 50% cell metabolic activity inhibition (IC50) expresses the cytotoxic activity of each glycoside. The experiments were conducted in triplicate, p ≤ 0.05.

T-47D cells = assay: cells; type: cell-based, human; details: MTT, 24 h, read-out: Cytotoxicity, IC50, T-47D
Description: as §1, §3

human erythrocytes [5] = tested on: human erythrocytes; set-up: method as in PMID 38132923; details: studied earlier; ref [8]; cited from earlier work
MCF-10A cells [6] = assay: in vitro; type: cell-based, human
Description: as §1, §2

[7] = 48 h, read-out: Cytotoxicity, IC50, 48 h, MCF-10A
[8] = 72 h, read-out: Cytotoxicity, IC50, 72 h, MCF-10A
[9] = MTT, 24 h, read-out: Cytotoxicity, IC50, MCF-10A

In the case of `C=C(C)CCC[C@]1(C)OC(=O)C23CC[C@H]4C(=CC[C@H]5C(C)(C)C(O[C@@H]6OC[C@@H](OS(=O)(=O)O)[C@H](O)[C@H]6O[C@@H]6O[C@H](CO)[C@@H](O[C@@H]7O[C@H](CO)[C@@H](O)[C@H](O[C@@H]8O[C@H](CO)[C@@H](O)[C@H](OC)[C@H]8O)[C@H]7O)[C@H](O)[C@H]6O[C@@H]6OC[C@@H](O)[C@H](O)[C@H]6O)CC[C@]45C)[C@]2(C)C[C@H](OC(C)=O)C31` (some centres unmarked) [Okhotoside B1 (8), okhotoside B1], the “Tumor cell selectivity index (SI), IC50 MCF-10A / IC50 MDA-MB-231” value (MDA-MB-231 cells [1]; 24 h) is reported as 3.61, the “Tumor cell selectivity index (SI), IC50 MCF-10A / IC50 MDA-MB-231” value (MDA-MB-231 cells [1]; 48 h) is reported as 1.32 and the “Tumor cell selectivity index (SI), IC50 MCF-10A / IC50 MDA-MB-231” value (MDA-MB-231 cells [1]; 72 h) is reported as 5.65. The IC50 (MDA-MB-231 cells [1]; Homo sapiens, MDA-MB-231, 48 h, read-out: Cytotoxicity, IC50, 48 h, MDA-MB-231) was 11.7 ± 1 µM, the IC50 (MDA-MB-231 cells [1]; Homo sapiens, MDA-MB-231, 72 h, read-out: Cytotoxicity, IC50, 72 h, MDA-MB-231) was 2.92 ± 0.07 µM and the IC50 (MDA-MB-231 cells [1]; Homo sapiens, MDA-MB-231, MTT, 24 h, read-out: Cytotoxicity, IC50, MDA-MB-231) was 11.3 ± 0.2 µM. For the same compound, the HC50 (human erythrocytes [2]; Erythrocyte, read-out: ED50, Erythrocytes (hemolytic activity)) was 1050 ± 120 nM, the inhibition at 5 µM (MCF-10A cells [3]; Homo sapiens, MCF-10A, 5 μM, % of the control) was 40.2% and the “Constraint on cell motility (migration) of MDA-MB-231 cells” value (MDA-MB-231 cells [4]) was 97%. The IC50 (in vitro; [7]) was 15.5 ± 0.81 µM, the IC50 (in vitro; [8]) was 16.5 ± 0.98 µM and the IC50 (in vitro; [9]) was 41 ± 0.81 µM. It also gave an IC50 (MCF-7 cells; Homo sapiens, MCF7) of 42.9 ± 2 µM and an IC50 (T-47D cells; Homo sapiens, T47D) of 20.3 ± 0.85 µM.

In the case of `CO[C@@H]1[C@@H](O)[C@H](O[C@@H]2[C@@H](O)[C@H](O[C@H]3[C@H](O)[C@@H](O[C@@H]4OC[C@@H](O)[C@H](O)[C@H]4O)[C@H](O[C@H]4[C@H](O[C@H]5CC[C@]6(C)C7CC[C@]8(C)[C@@H]([C@@](C)(O)C(=O)CC=C(C)C)CC[C@@]8(C)C7=CC[C@H]6C5(C)C)OC[C@@H](OS(=O)(=O)[O-])[C@@H]4O)O[C@@H]3C)O[C@H](COS(=O)(=O)[O-])[C@H]2O)O[C@H](COS(=O)(=O)[O-])[C@H]1O.[Na+].[Na+].[Na+]` (some centres unmarked) [djakonovioside F1 (15), djakonovioside F1], the “Hemolytic activity (in words)” value (human erythrocytes [5]) is listed as “highly active”.

With “DS-okhotoside B1 [DS-okhotoside B1 (8a)]” the “Tumor cell selectivity index (SI), IC50 MCF-10A / IC50 MDA-MB-231” value (MDA-MB-231 cells [1]; 24 h) was 9.06, the “Tumor cell selectivity index (SI), IC50 MCF-10A / IC50 MDA-MB-231” value (MDA-MB-231 cells [1]; 24 h, listed as 8a) was roughly 10 and the “Tumor cell selectivity index (SI), IC50 MCF-10A / IC50 MDA-MB-231” value (MDA-MB-231 cells [1]; 48 h) was 2.21. For the same compound, the IC50 (MDA-MB-231 cells [1]; 48 h, read-out: Cytotoxicity, IC50, 48 h, MDA-MB-231) was 2.63 ± 0.14 µM, the “Tumor cell selectivity index (SI), IC50 MCF-10A / IC50 MDA-MB-231” value (MDA-MB-231 cells [1]; 72 h) was 4.62 and the IC50 (MDA-MB-231 cells [1]; 72 h, read-out: Cytotoxicity, IC50, 72 h, MDA-MB-231) was 0.6 ± 0.03 µM. For the same compound, the IC50 (MDA-MB-231 cells [1]; MTT, 24 h, read-out: Cytotoxicity, IC50, MDA-MB-231) was 1.09 ± 0.08 µM, the “ED50, Erythrocytes (hemolytic activity)” value (human erythrocytes [2]) was 0.33 ± 0.03 µM and the “Influence on colony formation and growth of MCF-10A cells” value (MCF-10A cells [3]; 0.5 μM) was “did not influence”. For the same compound, the IC50 (MCF-10A cells [6]; [7]) was 5.81 ± 0.46 µM, the IC50 (MCF-10A cells [6]; [8]) was 2.77 ± 0.25 µM and the IC50 (MCF-10A cells [6]; [9]) was 9.87 ± 0.73 µM. The IC50 (MCF-7 cells) was 18.8 ± 0.71 µM and the IC50 (T-47D cells) was 9.62 ± 0.3 µM.
